Values of other authors in publication PMC10714399, “Open Source Antibiotics: Simple Diarylimidazoles Are Potent against Methicillin-Resistant Staphylococcus aureus” (ACS Infectious Diseases, 2023).

Tests used:
p38 kinase = tested on: p38 kinase; design: method as in earlier work; settings: cited from earlier work
[1] = target: transforming growth factor β1 (TGF-β1) type I receptor (ALK5); design: method as in earlier work; settings: read-out: IC50 against ALK5; cited from earlier work
[2] = tested on: TGF-β1-induced fibronectin mRNA formation; design: method as in earlier work; settings: cited from earlier work
[3] = design: method as in earlier work; settings: 48 h XTT assay; read-out: CC50, cytotoxicity; cited from earlier work

NC(=O)c1ccc(-c2nc(-c3ccc4c(c3)OCO4)c(-c3ccccn3)[nH]2)cc1 [SB-431542]
inhibition of p38 kinase (p38 kinase): no inhibition | IC50 [1]: 94 nM | IC50 [2]: 50 nM | CC50 [3]: > 30000 nM
